Where “and” joins values, the source holds several entries; their conditions need not be identical. Equal entries are not always repeated.
Tests used:
[1] = test system: normal human epidermal melanocytes (NHEM); test: Inhibition of melanin synthesis in L-tyrosine-stimulated human epidermal melanocytes; format: cell-based; details: 300 μM; stimulation by L-tyrosine (1 mM); 240 hours; n=3
Method: Human melanocytes are stimulated by L-tyrosine to induce an increase of the melanin synthesis and be able to measure an inhibition of this synthesis when a whitening agent is added.
Biological model: normal human epidermal melanocytes (NHEM), lightly pigmented, were cultured in medium M254 supplemented with PMA free HMGS-2; Insulin 5 ag/ml; Penicillin 50 U/ml; Streptomycin 50 ag/ml; Gentamycin 25 μg/ml (incubator: 37° C. and 5% CO2).
Culture and treatment: melanocytes were seeded in 24-well plates and cultured in culture medium for 24 hours. The medium was then replaced by culture medium containing the test compounds or not (stimulated control) in presence of the inducer (L-tyrosine at 1 mM). The cells were then incubated for 240 hours with 2 treatment renewals after 72 and 168 hours of incubation. A non-stimulated control was performed in parallel. All experimental conditions were performed in n=3.
Melanin assay: at the end of incubation, the culture supernatants were removed and the melanin was extracted by cell lysis using a 0.5 N NaOH solution. The optical density (OD) of each experimental point was measured at 405 nm and melanin quantity was calculated using melanin standards (standard curve 0.39 to 100 μg/ml melanin). Results were expressed in […] of melanin.

[2] = test system: NHEM culture; test: Determination of the higher non-cytotoxic concentration on NHEM culture; format: cell-based, human
Method: The compounds have been tested beforehand at different concentrations on the NHEM culture to determine the higher non-cytotoxic concentration to be used to evaluate the potential inhibition of melanin synthesis. The determined concentration was 300 μM for all compounds: 8, 16, 28a.

[3] = test system: human tyrosinase; test: Inhibition of human tyrosinase in-tubo (HumanLike Tyrosinase Assay kit, Feldan); format: biochemical; details: 1.12 mM
Method: The efficacy of compound 8 was evaluated by the inhibition of human tyrosinase in-tubo and compared to the prior art compound deoxyarbutin.
The assay was performed with a ready-to-use kit from Feldan Inc (Canada): the HumanLike Tyrosinase Assay kit (ref A021-a-001Kit).
The protocol was performed as described in the instructions for use of the manufacturer. Briefly, this kit is intended for the determination of human tyrosinase activity in presence of different inhibitors. The kit measures the conversion of L-Tyrosine into a dopachrome complex absorbing at 490 nm. The time course of the assay is 20 minutes, after which the results are analyzed and compared.
The compound 8 and deoxyarbutin have been tested at a final concentration of 1.12 mM. The measured absorbances at 490 nm are reported in the table 1 and plotted in function of time in the FIG. 1.
Moreover for each compound the efficacy as tyrosinase inhibitor was calculated using the following formula: […]

Row | Inhibitor efficacy (%) ([3]; T = 20 min) | OD at 490 nm ([3]; time 0 min) | OD at 490 nm ([3]; time 1 min) | OD at 490 nm ([3]; time 2 min) | OD at 490 nm ([3]; time 3 min) | OD at 490 nm ([3]; time 4 min) | OD at 490 nm ([3]; time 5 min) | OD at 490 nm ([3]; time 6 min) | OD at 490 nm ([3]; time 7 min) | OD at 490 nm ([3]; time 8 min) | OD at 490 nm ([3]; time 9 min) | OD at 490 nm ([3]; time 10 min) | OD at 490 nm ([3]; time 11 min) | OD at 490 nm ([3]; time 12 min) | OD at 490 nm ([3]; time 13 min) | OD at 490 nm ([3]; time 14 min) | OD at 490 nm ([3]; time 15 min) | Structure (SMILES) | Melanin synthesis (μg/ml), single replicates [1] | Melanin synthesis, Mean [1] [µg/mL] | higher non-cytotoxic concentration [2] [µM] | also measured
1 | – | – | – | – | – | – | – | – | – | – | – | – | – | – | – | – | – | Oc1ccc(OC2C(O)CCCC2(F)F)cc1 (racemic) [Compound 16] | 7.9 μg/ml and 8.2 μg/ml (2×) | 8.1 | 300 | –
2 | 9.4 | 0.0000 | 0.0100 | 0.0195 | 0.0290 | 0.0385 | 0.0480 | 0.0585 | 0.0695 | 0.0800 | 0.0935 | 0.1035 | 0.1155 | 0.1265 | 0.1385 | 0.1500 | 0.1615 | Oc1ccc(OC2CCCCO2)cc1 (stereo not drawn) [Deoxyarbutin, deoxyarbutin, reference compound] | – | – | – | OD at 490 nm ([3]; time 16 min): 0.1735; OD at 490 nm ([3]; time 17 min): 0.1846; OD at 490 nm ([3]; time 18 min): 0.1975; OD at 490 nm ([3]; time 19 min): 0.2095; OD at 490 nm ([3]; time 20 min): 0.2220
3 | 32.0 | 0.0000 | 0.0080 | 0.0170 | 0.0245 | 0.0345 | 0.0415 | 0.0505 | 0.0610 | 0.0675 | 0.0755 | 0.0845 | 0.0935 | 0.1015 | 0.1090 | 0.1165 | 0.1255 | Oc1ccc(O[C@@H]2[C@H](O)[C@@H](O)CCC2(F)F)cc1 [Compound 8] | 9.2 μg/ml (2×) and 9.4 μg/ml | 9.3 | 300 | times better efficacy than deoxyarbutin on human tyrosinase inhibition ([3]; T = 20 min): 3.4 times; OD at 490 nm ([3]; time 16 min): 0.1355; OD at 490 nm ([3]; time 17 min): 0.1405; OD at 490 nm ([3]; time 18 min): 0.1495; OD at 490 nm ([3]; time 19 min): 0.1575; OD at 490 nm ([3]; time 20 min): 0.1665
4 | – | – | – | – | – | – | – | – | – | – | – | – | – | – | – | – | – | N[C@@H]1CCCC(F)(F)[C@@H]1Oc1ccc(O)cc1 [Compound 28a] | 9.9 µg/mL and 10.5 µg/mL and 10.2 µg/mL | 10.2 | 300 | –
